In patent publication US7592160B2, “Processes for producing isomaltose and isomaltitol and use thereof” (Kabushiki Kaisha Hayashibara Seibutsu Kagaku Kenkyujo, priority 2001, dated 2009):

Tests used:
Set-up in all cases: key: −: no saccharide-transferred product was detected through transfer reaction to acceptor; ±: a saccharide-transferred product was detected in an amount less than one percent through transfer reaction to acceptor; +: a saccharide-transferred product was detected in an amount over one percent but less than 10% through transfer reaction to acceptor; ++: a saccharide-transferred product was detected in an amount over ten percent through transfer reaction to acceptor
[1] = tested on: α-isomaltosylglucosaccharide-forming enzyme; experiment: Transfer-acceptor specificity, enzyme of A19 strain; assay type: biochemical, Arthrobacter globiformis A19 strain; details: acceptor 1.6%, PINE-DEX #100 donor 4%, one unit/g donor, 30° C., pH 8.4, 24 hours
Protocol: (§1) Using various saccharides, it was tested whether the saccharides were used as transferring-acceptors for α-isomaltosylglucosaccharide-forming enzyme. A solution of D-glucose, D-xylose, L-xylose, D-galactose, D-fructose, D-mannose, D-arabinose, D-fucose, D-psicose, L-sorbose, L-rhamnose, methyl-α-glucopyranoside, methyl-β-glucopyranoside, N-acetyl-glucosamine, sorbitol, α,α-trehalose, isomaltose, isomaltotriose, cellobiose, gentibiose, glycerol, maltitol, lactose, sucrose, α-cyclodextrin, β-cyclodextrin, γ-cyclodextrin, or L-ascorbic acid was prepared. To each solution with a saccharide concentration of 1.6% was added “PINE-DEX #100”, a partial starch hydrolyzate, as a saccharide donor, to give a concentration of 4%, and admixed with one unit/g saccharide donor, d.s.b., of either of purified specimens of α-isomaltosylglucosaccharide-forming enzyme from Bacillus globisporus C9 strain obtained by the method in Experiment 4-2, Bacillus globisporus C11 strain obtained by the method in Experiment 7-2, Bacillus globisporus N75 strain obtained by the method in Experiment 11-2, or Arthrobacter globiformis A19 strain obtained by the method in Experiment 15-2, and incubated at 30° C. and pH 6.0 for 24 hours, except that pH 8.4 was used for the enzyme from Arthrobacter globiformis A19 strain. The reaction mixtures of the post-enzymatic reactions were analyzed on gas chromatography (abbreviated as “GLC” hereinafter) for monosaccharides and disaccharides as acceptors, and on HPLC for trisaccharides as acceptors to confirm whether these saccharides could be used as the transfer acceptors of the above enzymes. In the case of performing GLC, the following apparatuses and conditions were used: GLC apparatus, “GC-16A” commercialized by Shimadzu Corporation, Tokyo, Japan; column, a stainless-steel column, 3 mm in diameter and 2 m in length, packed with 2% “SILICONE OV-17/CHROMOSOLV W”, commercialized by GL Sciences Inc., Tokyo, Japan; carrier gas, nitrogen gas at a flow rate of 40 ml/min under temperature conditions of increasing from 160° C. to 320° C. at an increasing temperature rate of 7.5° C./min; and detection, a hydrogen flame ionization detector. In the case of performing HPLC analysis, the following apparatuses and conditions were used: HPLC apparatus, “CCPD” commercialized by Tosoh Corporation, Tokyo, Japan; column, “ODS-AQ-303” commercialized by YMC Co., Ltd., Tokyo, Japan; eluent, water at a flow rate of 0.5 ml/min; and detection, a differential refractometer.

[2] = tested on: α-isomaltosylglucosaccharide-forming enzyme; experiment: Transfer-acceptor specificity, enzyme of C9 strain; assay type: biochemical, Bacillus globisporus C9 strain; details: acceptor 1.6%, PINE-DEX #100 donor 4%, one unit/g donor, 30° C., pH 6.0, 24 hours
Protocol: as §1

[3] = tested on: α-isomaltosylglucosaccharide-forming enzyme; experiment: Transfer-acceptor specificity, enzyme of C11 strain; assay type: biochemical, Bacillus globisporus C11 strain; details: acceptor 1.6%, PINE-DEX #100 donor 4%, one unit/g donor, 30° C., pH 6.0, 24 hours
Protocol: as §1

[4] = tested on: α-isomaltosylglucosaccharide-forming enzyme; experiment: Transfer-acceptor specificity, enzyme of N75 strain; assay type: biochemical, Bacillus globisporus N75 strain; details: acceptor 1.6%, PINE-DEX #100 donor 4%, one unit/g donor, 30° C., pH 6.0, 24 hours
Protocol: as §1

| Compound | Product of transferring reaction, Enzyme of A19 strain [1] | Product of transferring reaction, Enzyme of C9 strain [2] | Product of transferring reaction, Enzyme of C11 strain [3] | Product of transferring reaction, Enzyme of N75 strain [4] |
| --- | --- | --- | --- | --- |
| O=C[C@@H](O)[C@H](O)[C@H](O)CO [D-Arabinose, D-arabinose] | ± (a saccharide-transferred product was detected in an amount less than one percent through transfer reaction to acceptor) | ± (a saccharide-transferred product was detected in an amount less than one percent through transfer reaction to acceptor) | ± (a saccharide-transferred product was detected in an amount less than one percent through transfer reaction to acceptor) | ± (a saccharide-transferred product was detected in an amount less than one percent through transfer reaction to acceptor) |
| OC[C@H]1O[C@@H]2O[C@H]3[C@H](O)[C@@H](O)[C@@H](O[C@H]4[C@H](O)[C@@H](O)[C@@H](O[C@H]5[C@H](O)[C@@H](O)[C@@H](O[C@H]6[C@H](O)[C@@H](O)[C@@H](O[C@H]7[C@H](O)[C@@H](O)[C@@H](O[C@H]8[C@H](O)[C@@H](O)[C@@H](O[C@H]9[C@H](O)[C@@H](O)[C@@H](O[C@H]1[C@H](O)[C@H]2O)O[C@@H]9CO)O[C@@H]8CO)O[C@@H]7CO)O[C@@H]6CO)O[C@@H]5CO)O[C@@H]4CO)O[C@@H]3CO [γ-Cyclodextrin, γ-cyclodextrin] | − | − | − | − |
| CO[C@@H]1O[C@H](CO)[C@@H](O)[C@H](O)[C@H]1O [Methyl-β-glucopyranoside, methyl-β-glucopyranoside] | ++ (a saccharide-transferred product was detected in an amount over ten percent through transfer reaction to acceptor) | ++ (a saccharide-transferred product was detected in an amount over ten percent through transfer reaction to acceptor) | ++ (a saccharide-transferred product was detected in an amount over ten percent through transfer reaction to acceptor) | ++ (a saccharide-transferred product was detected in an amount over ten percent through transfer reaction to acceptor) |
| O=C[C@H](O)[C@@H](O)[C@H](O)CO [D-Xylose, D-xylose] | + (a saccharide-transferred product was detected in an amount over one percent but less than 10% through transfer reaction to acceptor) | ++ (a saccharide-transferred product was detected in an amount over ten percent through transfer reaction to acceptor) | ++ (a saccharide-transferred product was detected in an amount over ten percent through transfer reaction to acceptor) | ++ (a saccharide-transferred product was detected in an amount over ten percent through transfer reaction to acceptor) |
| O=C1O[C@H]([C@@H](O)CO)C(O)=C1O [L-Ascorbic acid, L-ascorbic acid] | + (a saccharide-transferred product was detected in an amount over one percent but less than 10% through transfer reaction to acceptor) | + (a saccharide-transferred product was detected in an amount over one percent but less than 10% through transfer reaction to acceptor) | + (a saccharide-transferred product was detected in an amount over one percent but less than 10% through transfer reaction to acceptor) | + (a saccharide-transferred product was detected in an amount over one percent but less than 10% through transfer reaction to acceptor) |
